Measurements from patent publication US12532883B2, “Powder compositions comprising salts of C4 to C10 oxocarboxylic acids and of unsaturated or aromatic C6 to C10 carboxylic acids” (Cosphatec GmbH, priority 2019, dated 2026).
≈ marks a conversion by molar mass, not a printed value. Like-named read-outs stand apart in the source and are kept apart here.

Tests used:
[1] = Hygroscopicity; type: physicochemical
[2] = Solubility; type: physicochemical; details: for solubility: 20° C.
[3] = tested on: Escherichia coli; details: cited from earlier work
[4] = tested on: Staphylococcus aureus; details: cited from earlier work
[5] = tested on: Pseudomonas aeruginosa; details: cited from earlier work
[6] = tested on: Candida albicans; details: cited from earlier work
[7] = tested on: Aspergillus brasiliensis; details: cited from earlier work
[8] = 20° C., Echa Registration Dossier; cited from earlier work

SMILES | hygroscopicity (in words) [1] | solubility ([2]; organic solvent or mixture, ethanol, read-out: solubility in ethanol) [µg/mL] | water solubility (in words) ([2]; water) | solubility ([2]; water, read-out: solubility in water) [µg/mL] | MIC [3] [%] | MIC [4] [%] | MIC [5] [%] | MIC [6] [%] | MIC [7] [%] | solubility in water [8] [µg/mL]
CC(=O)CCC(=O)[O-].[Na+] [sodium levulinate] | highly hygroscopic |  |  |  |  |  |  |  |  | 
COc1ccc(C(=O)O)cc1 [p-methoxybenzoic acid] |  | 50000 (≈ 329000 µM) | low water solubility | 300 (≈ 1970 µM) | 0.16 | 0.08 | 0.16 | 0.04 | 0.0025 | 200 (≈ 1310 µM)
COc1ccc(C(=O)[O-])cc1.[Na+] [p-methoxybenzoate salt, sodium p-methoxybenzoate] | non-hygroscopic |  |  |  |  |  |  |  |  | 
CC(=O)CCC(=O)O [levulinic acid, 4-oxovaleric acid] |  |  | good water solubility |  | 0.20 | 0.35 | 0.15 | 0.60 |  | 
